Values after ≈ are worked out from the molar mass of the structure shown.
Columns and labels:
[1] = test system: K562; test: Antitumor activity against human K562 cells incubated for 24 hrs by CCK-8 assay; assay type: functional, cell-based; conditions: K562, 24 h
[2] = test system: A549; test: Cytotoxicity against human A549 cells incubated for 72 hrs by MTT assay; assay type: functional, cell-based; conditions: A549, 72 h
[3] = test system: A549; test: Antitumor activity against human A549 cells incubated for 72 hrs by MTT assay; assay type: functional, cell-based; conditions: A549, 72 h
[4] = test system: K562; test: Cytotoxicity against human K562 cells incubated for 24 hrs by CCK-8 assay; assay type: functional, cell-based; conditions: K562, 24 h
[5] = test system: MCF7; test: Antitumor activity against human MCF7 cells incubated for 72 hrs by MTT assay; assay type: functional, cell-based; conditions: MCF7, 72 h
[6] = test system: PC-3; test: Antitumor activity against human PC-3 cells incubated for 72 hrs by SRB calorimetric assay; assay type: functional, cell-based; conditions: PC-3, 72 h
[7] = test system: Capan-2; test: Antitumor activity against human Capan-2 cells incubated for 48 to 72 hrs by MTS Assay; assay type: functional, cell-based
[8] = test system: HepG2; test: Antitumor activity against human HepG2 cells incubated for 72 hrs by SRB calorimetric assay; assay type: functional, cell-based; conditions: HepG2, 72 h
[9] = test system: BXPC-3; test: Antitumor activity against human BXPC-3 cells incubated for 48 to 72 hrs by MTS Assay; assay type: functional, cell-based
[10] = test system: PANC-1; test: Antitumor activity against human PANC-1 cells incubated for 48 to 72 hrs by MTS Assay; assay type: functional, cell-based
[11] = Antiproliferative activity against human U87 cells overexpressing miR-9 assessed as cell viability incubated for 48 hrs by Cell Counting Kit-8 assay; assay type: functional, cell-based, U-87MG ATCC; conditions: U-87 MG
[12] = test system: PC-3; test: Cytotoxicity against human PC-3 cells incubated for 48 hrs by CCK-8 assay; assay type: functional, cell-based; conditions: PC-3, 48 h
[13] = test system: PC-3; test: Antiproliferative activity against human PC3 cells assessed as cell viability incubated for 48 hrs by Cell Counting Kit-8 assay; assay type: functional, cell-based; conditions: PC-3, 48 h
[14] = test system: HepG2; test: Antiproliferative activity against human HepG2 cells assessed as cell viability incubated for 48 hrs by Cell Counting Kit-8 assay; assay type: functional, cell-based; conditions: HepG2, 48 h
[15] = test system: HepG2; test: Cytotoxicity against human HepG2 cells incubated for 48 hrs by CCK-8 assay; assay type: functional, cell-based; conditions: HepG2, 48 h
[16] = test system: Saccharomyces cerevisiae; test: Antifungal activity against Saccharomyces cerevisiae IFO 0304 assessed as inhibition of fungal growth incubated for 72 hrs by broth dilution method; assay type: functional
[17] = test system: Pichia kudriavzevii; test: Antifungal activity against Pichia kudriavzevii IFO 0590 assessed as inhibition of fungal growth incubated for 72 hrs by broth dilution method; assay type: functional
[18] = test system: L5178Y; test: Cytotoxicity against mouse L5178Y cells; assay type: functional
[19] = test system: Cyberlindnera jadinii; test: Antifungal activity against Cyberlindnera jadinii IFO 0396 assessed as inhibition of fungal growth incubated for 72 hrs by broth dilution method; assay type: functional; conditions: Williopsis jadinii
[20] = test system: Rhizomucor pusillus; test: Antifungal activity against Rhizomucor pusillus IAM 6122 assessed as inhibition of fungal growth incubated for 72 hrs by broth dilution method; assay type: functional
[21] = Toxicity in CDF1 mouse allografted with mouse […] cells assessed as lethal dose administered for 6 days ,ip; assay type: cell-based; conditions: in vivo, time 6 day
[22] = test system: Rhizopus delemar; test: Antifungal activity against Rhizopus delemar IAM 6015 assessed as inhibition of fungal growth incubated for 72 hrs by broth dilution method; assay type: functional
[23] = test system: Penicillium chrysogenum; test: Antifungal activity against Penicillium chrysogenum1AM 7106 assessed as inhibition of fungal growth incubated for 72 hrs by broth dilution method; assay type: functional; conditions: 1AM 7106
[24] = test system: Aspergillus japonicus; test: Antifungal activity against Aspergillus japonicus IAM 2016 assessed as inhibition of fungal growth incubated for 72 hrs by broth dilution method; assay type: functional
[25] = Cytotoxicity against human HAF cells incubated for 48 to 72 hrs by MTS assay; assay type: toxicity, cell-based, Fibroblast; conditions: HAF cells (fibroblasts)
[26] = test system: PANC-1; test: Antitumor activity against human PANC-1; assay type: functional, cell-based; conditions: pooled result: one value given for 3 cell lines, strains, targets or settings
[27] = Cytotoxicity against human HaCaT cells incubated for 48 to 72 hrs by MTS assay; assay type: toxicity, cell-based
[28] = test system: PLC; test: Antitumor activity against human PLC cells incubated for 72 hrs by hemocytometer; assay type: functional, cell-based
[29] = Inhibition of NO production in LPS stimulated mouse BV-2 cells measured after 24 hrs; assay type: functional, cell-based; conditions: BV-2, 24 h
[30] = test system: BV-2; test: Cytotoxicity against LPS stimulated mouse BV-2 cells by MTS assay; assay type: functional, cell-based
[31] = Cytotoxicity against human HAF cells; assay type: toxicity, cell-based, Fibroblast; conditions: HAF cells (fibroblasts)
[32] = Cytotoxicity against mouse C2C12 cells; assay type: toxicity, cell-based
[33] = Cytotoxicity against mouse C2C12 cells incubated for 48 to 72 hrs by MTS assay; assay type: toxicity, cell-based
[34] = Cytotoxicity against human HaCaT cells; assay type: toxicity, cell-based
[35] = test system: HeLa; test: Antitumor activity against human HeLa cells incubated for 72 hrs by hemocytometer; assay type: functional, cell-based
[36] = Inhibition of bovine brain FTase; set-up: species or system Bos taurus
[37] = test system: HL-60; test: Antitumor activity against human HL60 cells; assay type: functional, cell-based
[38] = test system: U-937; test: Antitumor activity against human U937 cells; assay type: functional, cell-based
[39] = test system: B16; test: Antitumor activity against mouse B-16 cells; assay type: functional, cell-based
[40] = test system: HeLa; test: Antitumor activity against human HeLa cells; assay type: functional, cell-based
[41] = test system: THP-1; test: Antitumor activity against human THP1 cells; assay type: functional, cell-based
[42] = test system: HT-29; test: Antitumor activity against human HT29 cells; assay type: functional, cell-based
[43] = test system: HCT-116; test: Antitumor activity against human HCT116 cells; assay type: functional, cell-based
[44] = test system: HL-60; test: Induction of apoptosis in human HL-60 cells assessed as effective dose; assay type: functional; conditions: read-out: ED50 (the source's name)
[45] = test system: HL-60; test: Antitumor activity against human HL60 cells assessed as cell growth incubated for 1 day by MTT assay; assay type: functional, cell-based; conditions: HL-60, 24 h
[46] = Cytotoxicity against human WI-38 cells assessed as cell growth incubated for 1 day by MTT assay; assay type: toxicity, cell-based
[47] = test system: Pyricularia oryzae; test: Antimicrobial activity against Pyricularia oryzae by agar dilution method; assay type: functional

For `CO[C@H]1/C=C/C=C/C=C/C[C@H](OC(=O)[C@@H](C)NC(C)=O)[C@H](C)[C@@H](O)/C(C)=C\CCc2cc(O)cc(c2)NC(=O)C1`, the IC50 [1] was > 10 µM, the IC50 [2] was 15 µM and the IC50 [3] was > 10 µM. For the same compound, the IC50 [4] was 23 µM and the IC50 [5] was > 10 µM.
For `CO[C@H]1/C=C/C=C/C=C/C[C@H](O)[C@H](C)[C@@H](OC(=O)[C@@H](C)NC(=O)C(C)C)/C(C)=C\CCc2cc(O)cc(c2)NC(=O)C1`, the IC50 [6] was > 10 µM, the IC50 [7] was > 10 µM and the IC50 [8] was > 10 µM. For the same compound, the IC50 [9] was > 10 µM and the IC50 [10] was > 10 µM.
With `CO[C@H]1/C=C/C=C/C=C/C[C@H](O)[C@H](C)[C@@H](O)/C(C)=C\CCc2cc(O)cc(c2)NC(=O)C1` the IC50 [1] was > 10 µM, the IC50 [3] was > 10 µM and the IC50 [5] was > 10 µM.
With `CO[C@H]1/C=C/C=C/C=C/C[C@H](OC(=O)[C@@H](C)NC(=O)C2CCCCC2)[C@H](C)[C@@H](O[C@@H]2O[C@H](CO)[C@@H](O)[C@H](O)[C@H]2O)/C(C)=C\CCc2cc(O)cc(c2O)NC(=O)C1` the IC50 [11] was ≥ 2020 nM, the IC50 [12] was 4.38 µM and the IC50 [13] was ≥ 2020 nM. For the same compound, the IC50 [14] was ≥ 2020 nM and the IC50 [15] was 2200 nM.
`CO[C@H]1/C=C/C=C/C=C/C[C@H](OC(=O)[C@@H](C)NC(=O)C2CCCCC2)[C@H](C)[C@@H](O)/C(C)=C\CCc2cc(O)cc(c2O)NC(=O)C1` showed an MIC [16] of 4 µg/mL (≈ 6.26 µM), an MIC [17] of 4 µg/mL (≈ 6.26 µM) and an MIC [18] of 0.11 µg/mL (≈ 0.172 µM). It also gave an MIC [19] of 4 µg/mL (≈ 6.26 µM), an MIC [20] of 4 µg/mL (≈ 6.26 µM) and an LD50 at 144 h [21] of 80 mg/kg. It also gave an MIC [22] of 4 µg/mL (≈ 6.26 µM), an MIC [23] of 4 µg/mL (≈ 6.26 µM) and an MIC [24] of 4 µg/mL (≈ 6.26 µM).
For `CO[C@H]1/C=C/C=C/C=C/C[C@H](OC(=O)[C@@H](C)NC(=O)C2CCCCC2)[C@H](C)[C@@H](O)/C(C)=C\CCc2cc(O)cc(c2)NC(=O)C1` [TRIENOMYCIN A], the IC50 [25] was > 10 µM, the IC50 [26] was 8 nM and the IC50 [27] was > 10 µM. It also gave an IC50 [28] of 8 nM, an EC50 [29] of 25.4 nM and an IC50 [30] of 8 nM. The IC50 [31] was 8 nM, the IC50 [32] was 8 nM and the IC50 [33] was > 10 µM. The IC50 [34] was 8 nM and the IC50 [35] was 8 nM.
For `CO[C@H]1/C=C/C=C/C=C/C[C@H](OC(C)=O)[C@H](C)[C@@H](O)/C(C)=C\CCc2cc(O)cc(c2)NC(=O)C1`, the IC50 [1] was > 10 µM, the IC50 [3] was > 10 µM and the IC50 [5] was > 10 µM.
Compound `C/C=C(\C)C(=O)N[C@H](C)C(=O)O[C@H]1C/C=C/C=C/C=C/[C@H](OC)CC(=O)Nc2cc(O)cc(c2O)CC/C=C(/C)[C@H](O)[C@H]1C` has an IC50 [36] of 0.6 µg/mL (≈ 0.982 µM).
Work on `CO[C@H]1/C=C/C=C/C=C/C[C@H](OC(=O)C2(NC(=O)C3=CCCCC3)CC2)[C@H](C)[C@@H](O)/C(C)=C\CCc2cc3c(c(c2O)NC(=O)C1)SCC(=O)N3` yielded an IC50 [37] of 50 nM, an IC50 [38] of 50 nM and an IC50 [39] of 50 nM. For the same compound, the IC50 [40] was 50 nM, the IC50 [41] was 50 nM and the IC50 [42] was 50 nM. The IC50 [43] was 50 nM.
For `CO[C@H]1/C=C/C=C/C=C/C[C@H](OC(=O)C2(NC(=O)C3=CCCCC3)CC2)[C@H](C)[C@@H](O)/C(C)=C\CCc2cc(O)cc(c2O)NC(=O)C1`, the EC50 [44] was 7.7 µM, the IC50 [45] was 7.7 nM and the IC50 at 1 day [46] was 7.7 nM. For the same compound, the MIC [47] was 12.5 µg/mL (≈ 19.3 µM).

From ChEMBL document CHEMBL5247589, “Natural occurrence, bioactivity, and biosynthesis of triene-ansamycins” (Eur J Med Chem, 2022)
